Test system: rabbits subjected to anterior cruciate ligament transection (ACLT)
Test: Rabbit ACLT study, histomorphometry of bone, cartilage and osteophytes
Format: in vivo
Method: The femora and tibias were decalcified, embedded in paraffin, sectioned at 5-7 µm at two different levels separated by approximately 2 mm, and stained with safranin O and toluidine blue.
Both tibial plateaus and femoral condyles (i.e. four joint compartments) were also subjected to histomorphometric analysis of cartilage, subchondral bone, cancellous bone, and osteophytes. The measurements were made using OsteoMeasureXP version 3.3.0.2 as follows:
Uncalcified cartilage area was measured by tracing the articular surface (cartilage perimeter) and bone or calcified cartilage/uncalcified cartilage interface (cartilage boundary).
Cartilage width was measured by point to point measurement at intersections between a sampling grid with approximately 0.5 mm spacing and the cartilage boundary. The intercepts measured were orthogonal to the cartilage boundary and ended at the cartilage perimeter. At intersections where the cartilage width was zero due to erosion, a value of zero was recorded.
Subchondral bone width was measured by point to point measurement at intersections between a sampling grid with approximately 0.5 mm spacing and the cartilage boundary. The intercepts measured were orthogonal to the cartilage boundary and ended at the first marrow cavity encountered that had at least one dimension approximately equivalent to nearby trabecular thickness.
Osteophyte area was measured for abaxial osteophytes. On the femur, osteophytes associated with the condyles but not with the trochlear grooves were measured.
Bone area (including osteoid) and perimeter were measured in a 3.8 X 1.5 mm ROI centered approximately 1 mm below the bone/cartilage interface. This ROI was intended to be equivalent to the subchondral cancellous bone VOI measured by microCT. Bone volume (BV/TV), trabecular thickness (Tb.Th), trabecular number (Tb.N) and trabecular separation (Tb.Sp) were derived from these measurements using standard formulae.
Slides were evaluated in animal ID order, i.e. in random order with respect to treatment, so that the measurer was effectively blinded to treatment assignment.
Analysis was performed on all four condyles at two levels (Level 1 and 2) for each condyle:
Group 1) sham + vehicle; Group 2) ACLT + vehicle; Group 3) ACLT + MIV-711, 30 µmol/kg (low dose) and Group 4) ACLT + MIV-711, 100 µmol/kg (high dose).

[1] = Level 2, MFC, Group 3: ACLT + MIV-711, 30 µmol/kg (low dose)
[2] = Level 2, MFC, Group 4: ACLT + MIV-711, 100 µmol/kg (high dose)
[3] = Level 2, MTP, Group 3: ACLT + MIV-711, 30 µmol/kg (low dose)
[4] = Level 2, MTP, Group 4: ACLT + MIV-711, 100 µmol/kg (high dose)

## C#C[C@@H]1CN(C(=O)[C@H](CC(C)C)NC(=O)c2ccc(-c3nc(N4CCN(C)CC4)sc3F)cc2)[C@@H]2C(=O)CO[C@H]12 [MIV-711]
Level 1 MFC, Group 4, ACLT + MIV-711 100 µmol/kg
  Tb.Th, Median: 161.50 µm
Level 2, LFC, Group 3
  BV/TV, Mean: 36.23%
  BV/TV, Median: 35.15%
  Cart.Ar, Mean: 1.54 mm2
  Cart.Ar, Median: 1.50 mm2
  Cart.Bd, Mean: 5.95 mm
  Cart.Bd, Median: 5.45 mm
  Cart.Pm, Mean: 6.68 mm
  Cart.Pm, Median: 6.07 mm
  Cart.Wi, Mean: 252.24 µm
  Cart.Wi, Median: 265.00 µm
  Ophte.Ar, Mean: 1.80 mm2
  Ophte.Ar, Median: 1.91 mm2
  SCB.Wi, Mean: 625.26 µm
  SCB.Wi, Median: 686.73 µm
  Tb.N, Mean: 2.86 1/mm
  Tb.N, Median: 3.01 1/mm
  Tb.Sp, Mean: 227.32 µm
  Tb.Sp, Median: 224.93 µm
  Tb.Th, Mean: 129.54 µm
  Tb.Th, Median: 124.26 µm
Level 2, LFC, Group 4
  BV/TV, Mean: 36.75%
  BV/TV, Median: 38.04%
  Cart.Ar, Mean: 1.69 mm2
  Cart.Ar, Median: 1.76 mm2
  Cart.Bd, Mean: 7.36 mm
  Cart.Bd, Median: 7.45 mm
  Cart.Pm, Mean: 8.13 mm
  Cart.Pm, Median: 8.16 mm
  Cart.Wi, Mean: 223.79 µm
  Cart.Wi, Median: 238.09 µm
  Ophte.Ar, Mean: 4.60 mm2
  Ophte.Ar, Median: 1.57 mm2
  SCB.Wi, Mean: 500.70 µm
  SCB.Wi, Median: 462.81 µm
  Tb.N, Mean: 3.05 1/mm
  Tb.N, Median: 2.97 1/mm
  Tb.Sp, Mean: 212.50 µm
  Tb.Sp, Median: 210.44 µm
  Tb.Th, Mean: 120.73 µm
  Tb.Th, Median: 120.14 µm
Level 2, LTP, Group 3
  BV/TV, Mean: 42.02%
  BV/TV, Median: 40.17%
  Cart.Ar, Mean: 0.88 mm2
  Cart.Ar, Median: 0.95 mm2
  Cart.Bd, Mean: 4.27 mm
  Cart.Bd, Median: 4.41 mm
  Cart.Pm, Mean: 4.26 mm
  Cart.Pm, Median: 4.48 mm
  Cart.Wi, Mean: 207.98 µm
  Cart.Wi, Median: 203.75 µm
  Ophte.Ar, Mean: 1.40 mm2
  Ophte.Ar, Median: 1.23 mm2
  SCB.Wi, Mean: 531.17 µm
  SCB.Wi, Median: 547.82 µm
  Tb.N, Mean: 2.93 1/mm
  Tb.N, Median: 3.04 1/mm
  Tb.Sp, Mean: 202.17 µm
  Tb.Sp, Median: 206.70 µm
  Tb.Th, Mean: 146.36 µm
  Tb.Th, Median: 148.82 µm
Level 2, LTP, Group 4
  BV/TV, Mean: 39.84%
  BV/TV, Median: 38.48%
  Cart.Ar, Mean: 1.20 mm2
  Cart.Ar, Median: 1.00 mm2
  Cart.Bd, Mean: 4.73 mm
  Cart.Bd, Median: 4.37 mm
  Cart.Pm, Mean: 5.10 mm
  Cart.Pm, Median: 4.58 mm
  Cart.Wi, Mean: 263.50 µm
  Cart.Wi, Median: 255.71 µm
  Ophte.Ar, Mean: 1.37 mm2
  Ophte.Ar, Median: 1.37 mm2
  SCB.Wi, Mean: 559.05 µm
  SCB.Wi, Median: 594.94 µm
  Tb.N, Mean: 2.47 1/mm
  Tb.N, Median: 2.50 1/mm
  Tb.Sp, Mean: 250.77 µm
  Tb.Sp, Median: 246.02 µm
  Tb.Th, Mean: 161.80 µm
  Tb.Th, Median: 153.89 µm
Level 2, MFC, Group 3
  BV/TV, Mean: 50.84%
  BV/TV, Median: 46.53%
[1]
  Cart.Ar, Mean: 1.47 mm2
  Cart.Ar, Median: 1.46 mm2
  Cart.Bd, Mean: 6.28 mm
  Cart.Bd, Median: 6.09 mm
  Cart.Pm, Mean: 6.91 mm
  Cart.Pm, Median: 6.73 mm
  Cart.Wi, Mean: 223.23 µm
  Cart.Wi, Median: 234.59 µm
  Ophte.Ar, Mean: 2.89 mm2
  Ophte.Ar, Median: 3.00 mm2
  SCB.Wi, Mean: 694.43 µm
  SCB.Wi, Median: 608.27 µm
  Tb.N, Mean: 2.80 1/mm
  Tb.N, Median: 2.86 1/mm
  Tb.Sp, Mean: 174.68 µm
  Tb.Sp, Median: 185.17 µm
  Tb.Th, Mean: 189.67 µm
  Tb.Th, Median: 161.11 µm
Level 2, MFC, Group 4
  BV/TV, Mean: 43.61%
  BV/TV, Median: 41.52%
[2]
  Cart.Ar, Mean: 1.41 mm2
  Cart.Ar, Median: 1.41 mm2
  Cart.Bd, Mean: 6.12 mm
  Cart.Bd, Median: 6.18 mm
  Cart.Pm, Mean: 6.67 mm
  Cart.Pm, Median: 6.55 mm
  Cart.Wi, Mean: 222.96 µm
  Cart.Wi, Median: 218.64 µm
  Ophte.Ar, Mean: 2.78 mm2
  Ophte.Ar, Median: 2.43 mm2
  SCB.Wi, Mean: 570.45 µm
  SCB.Wi, Median: 510.39 µm
  Tb.N, Mean: 3.01 1/mm
  Tb.N, Median: 3.07 1/mm
  Tb.Sp, Mean: 189.22 µm
  Tb.Sp, Median: 197.91 µm
  Tb.Th, Mean: 144.65 µm
  Tb.Th, Median: 140.49 µm
[3]
  BV/TV, Mean: 39.18%
  BV/TV, Median: 39.13%
  Cart.Ar, Mean: 0.74 mm2
  Cart.Ar, Median: 0.67 mm2
  Cart.Bd, Mean: 2.32 mm
  Cart.Bd, Median: 2.31 mm
  Cart.Pm, Mean: 2.43 mm
  Cart.Pm, Median: 2.27 mm
  Cart.Wi, Mean: 312.01 µm
  Cart.Wi, Median: 270.73 µm
  Ophte.Ar, Mean: 5.73 mm2
  Ophte.Ar, Median: 3.43 mm2
  SCB.Wi, Mean: 747.49 µm
  SCB.Wi, Median: 739.43 µm
  Tb.N, Mean: 2.37 1/mm
  Tb.N, Median: 2.27 1/mm
  Tb.Sp, Mean: 257.90 µm
  Tb.Sp, Median: 251.22 µm
  Tb.Th, Mean: 166.79 µm
  Tb.Th, Median: 176.63 µm
[4]
  BV/TV, Mean: 33.87%
  BV/TV, Median: 33.99%
  Cart.Ar, Mean: 1.78 mm2
  Cart.Ar, Median: 0.71 mm2
  Cart.Bd, Mean: 2.50 mm
  Cart.Bd, Median: 2.18 mm
  Cart.Pm, Mean: 2.70 mm
  Cart.Pm, Median: 2.14 mm
  Cart.Wi, Mean: 282.89 µm
  Cart.Wi, Median: 257.34 µm
  Ophte.Ar, Mean: 10.32 mm2
  Ophte.Ar, Median: 6.59 mm2
  SCB.Wi, Mean: 575.52 µm
  SCB.Wi, Median: 691.04 µm
  Tb.N, Mean: 2.15 1/mm
  Tb.N, Median: 1.97 1/mm
  Tb.Sp, Mean: 317.92 µm
  Tb.Sp, Median: 313.76 µm
  Tb.Th, Mean: 160.02 µm
  Tb.Th, Median: 151.52 µm

From PMC5845353, “The selective cathepsin K inhibitor MIV-711 attenuates joint pathology in experimental animal models of osteoarthritis” (Journal of Translational Medicine, 2018)
